Like-named read-outs stand apart in the source and are kept apart here.
Experiments:
[1] = molecular target: GSK3α (GST-full length GSK3α) (Homo sapiens (Human), UniProt P49840); assay: GSK3α TR-FRET kinase assay; assay type: biochemical
Summary of the method: (§1)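 In this time-resolved FRET format, kinase reactions contained 200 nM biotinylated, S645-phosphorylated glycogen synthase 631-650 peptide and either isoform-specific ATP (2 μM GSK3b, 4 μM GSK3α) or 1 mM ATP. They were quenched with EDTA after 100 min at ambient temperature. Inhibition curves gave IC50 values.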

[2] = molecular target: GSK3b (GST-full length GSK3b) (Homo sapiens (Human), UniProt P49841); assay: GSK3b TR-FRET kinase assay; assay type: biochemical
Summary of the method: as §1

[3] = 1 nM GSK3α, 4 μM ATP, 30 minute preincubation, Table 16, read-out: GSK3-A TR-FRET BIOCHEMICAL (TR-FRET)
[4] = 1 nM GSK3b, 2 μM ATP, 30 minute preincubation, Table 16, read-out: GSK3-B TR-FRET BIOCHEMICAL (TR-FRET)
[5] = read-out: GSK3-A (TR-FRET 1 mM ATP), GMean, IC50, 1 mM ATP, geometric mean
[6] = read-out: GSK3-B (TR-FRET 1 mM ATP), GMean, IC50, 1 mM ATP, geometric mean
[7] = 1 nM GSK3α, 4 μM ATP, 30 minute preincubation, Table 16, read-out: GSK3-A TR-FRET BIOCHEMICAL (TR-FRET), IC50
[8] = 1 nM GSK3b, 2 μM ATP, 30 minute preincubation, Table 16, read-out: GSK3-B TR-FRET BIOCHEMICAL (TR-FRET), IC50
[9] = 1 nM GSK3α, 4 μM ATP, 30 minute preincubation, read-out: GSK3-A TR-FRET BIOCHEMICAL (TR-FRET), IC50
[10] = 1 nM GSK3b, 2 μM ATP, 30 minute preincubation, read-out: GSK3-B TR-FRET BIOCHEMICAL (TR-FRET), IC50

Chain of GSK3b (GST-full length GSK3b) (P49841 whole entry): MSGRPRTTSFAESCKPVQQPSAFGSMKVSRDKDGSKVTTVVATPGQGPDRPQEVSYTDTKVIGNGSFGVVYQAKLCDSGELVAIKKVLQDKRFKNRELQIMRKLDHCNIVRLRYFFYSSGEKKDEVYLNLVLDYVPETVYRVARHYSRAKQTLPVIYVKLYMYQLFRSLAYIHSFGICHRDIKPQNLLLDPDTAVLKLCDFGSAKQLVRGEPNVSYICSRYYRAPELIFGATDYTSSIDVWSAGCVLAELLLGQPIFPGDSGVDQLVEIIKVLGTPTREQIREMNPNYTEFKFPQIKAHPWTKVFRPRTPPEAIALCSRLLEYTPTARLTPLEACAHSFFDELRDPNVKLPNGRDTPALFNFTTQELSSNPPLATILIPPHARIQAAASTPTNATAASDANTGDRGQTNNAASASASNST
Chain of GSK3α (GST-full length GSK3α) (P49840 whole entry, canonical isoform): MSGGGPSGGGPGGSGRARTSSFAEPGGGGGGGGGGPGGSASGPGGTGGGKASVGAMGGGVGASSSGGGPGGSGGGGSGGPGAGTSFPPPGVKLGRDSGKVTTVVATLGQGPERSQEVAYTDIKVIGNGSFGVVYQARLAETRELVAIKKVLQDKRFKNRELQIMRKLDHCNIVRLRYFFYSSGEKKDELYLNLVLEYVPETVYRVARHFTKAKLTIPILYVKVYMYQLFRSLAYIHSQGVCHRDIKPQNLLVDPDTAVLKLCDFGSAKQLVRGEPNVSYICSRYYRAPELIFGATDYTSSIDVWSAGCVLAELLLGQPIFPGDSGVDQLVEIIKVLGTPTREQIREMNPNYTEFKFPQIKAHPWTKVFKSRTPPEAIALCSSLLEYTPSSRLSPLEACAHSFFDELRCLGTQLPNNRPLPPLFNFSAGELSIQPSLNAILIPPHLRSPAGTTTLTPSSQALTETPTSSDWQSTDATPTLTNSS

Structure (SMILES) | IC50 [1, 3] | IC50 [2, 4] | also measured
CCC1(c2cccc(-c3ccnc(C)c3C)c2)C2=C(CC(C)(C)CC2=O)Nc2n[nH]cc21 (centres unmarked) [Compound 943517] | 100 to 1000 nM | > 5000 nM | –
CCC1(c2cccc(-c3ccncc3F)c2)C2=C(CC(C)(C)CC2=O)Nc2n[nH]cc21 (centres unmarked) [Compound 943518] | ≤ 100 nM | ≤ 100 nM | IC50 [1, 5]: ≤ 100 nM; IC50 [2, 6]: 100 to 1000 nM
CC[C@]1(c2cccc(-c3ccncc3F)c2)C2=C(CC(C)(C)CC2=O)Nc2n[nH]cc21 [Compound 943519] | 100 to 1000 nM | 1000 to 5000 nM | –
CCC1(c2cccc(-c3cnc(C)n3C)c2)C2=C(CC(C)(C)CC2=O)Nc2n[nH]cc21 (centres unmarked) [Compound 943531] | ≤ 100 nM | 100 to 1000 nM | IC50 [1, 5]: 100 to 1000 nM; IC50 [2, 6]: > 5000 nM
CCC1(c2cccc(-c3ncnn3C)c2)C2=C(CC(C)(C)CC2=O)Nc2n[nH]cc21 (centres unmarked) [Compound 943532] | ≤ 100 nM | 100 to 1000 nM | –
CCC1(c2cccc(-c3cncn3C)c2)C2=C(CC(C)(C)CC2=O)Nc2n[nH]cc21 (centres unmarked) [Compound 943533] | ≤ 100 nM | ≤ 100 nM | –
CCC1(c2cccc(-c3ccnc4c3CCC4)c2)C2=C(CC(C)(C)CC2=O)Nc2n[nH]cc21 (centres unmarked) [Compound 943534] | ≤ 100 nM | ≤ 100 nM | –
CCC1(c2cccc(-c3cnc4n3CCCC4)c2)C2=C(CC(C)(C)CC2=O)Nc2n[nH]cc21 (centres unmarked) [Compound 943535] | ≤ 100 nM | ≤ 100 nM | –
CCC1(c2cccc(N(C)c3cc(C)ccn3)c2)C2=C(CC(C)(C)CC2=O)Nc2n[nH]cc21 (centres unmarked) [Compound 943537] | ≤ 100 nM | 100 to 1000 nM | –
CCC1(c2cccc(-c3ccncc3CO)c2)C2=C(CC(C)(C)CC2=O)Nc2n[nH]cc21 (centres unmarked) [Compound 943539] | ≤ 100 nM | ≤ 100 nM | –
CCC1(c2cccc(-c3ccnc(CO)c3)c2)C2=C(CC(C)(C)CC2=O)Nc2n[nH]cc21 (centres unmarked) [Compound 943540] | ≤ 100 nM | 100 to 1000 nM | –
CCC1(c2cccc(S(=O)(=O)C3CCCCC3)c2)C2=C(CC(C)(C)CC2=O)Nc2n[nH]cc21 (centres unmarked) [Compound 943541] | ≤ 100 nM | ≤ 100 nM | IC50 [1, 5]: 100 to 1000 nM; IC50 [2, 6]: 1000 to 5000 nM
CC1(C)CC(=O)C2=C(C1)Nc1n[nH]cc1C21CN(S(=O)(=O)Cc2ccccc2)C1 [Compound 943543] | ≤ 100 nM | ≤ 100 nM | –
COCCN1CC2(C1)C1=C(CC(C)(C)CC1=O)Nc1n[nH]cc12 [Compound 943544] | – | – | IC50 [1, 7]: > 5000 nM; IC50 [2, 8]: > 5000 nM
CC1(C)CC(=O)C2=C(C1)Nc1n[nH]cc1C21CN(CC2CCOCC2)C1 [Compound 943545] | – | – | IC50 [1, 7]: > 5000 nM; IC50 [2, 8]: > 5000 nM
C[C@H]1C[C@@H]2C[C@]3(C[C@@H]2C1)C1=C(CC(C)(C)CC1=O)Nc1n[nH]cc13 [Compound 943896] | – | – | IC50 [1, 9]: ≤ 100 nM; IC50 [2, 10]: ≤ 100 nM
C[C@@H]1C[C@@H]2C[C@]3(C[C@@H]2C1)C1=C(CC(C)(C)CC1=O)Nc1n[nH]cc13 [Compound 943898] | – | – | IC50 [1, 9]: ≤ 100 nM; IC50 [2, 10]: ≤ 100 nM
CCC1(c2cccc(-c3cnn(C)c3)c2)C2=C(CC(C)(C)NC2=O)Nc2n[nH]cc21 (centres unmarked) [Compound 943912] | – | – | IC50 [1, 9]: ≤ 100 nM; IC50 [2, 10]: 1000 to 5000 nM
CC1(C)CC(=O)C2=C(C1)Nc1n[nH]cc1C21CN(CC2CCCC2)C1 [Compound 943914] | – | – | IC50 [1, 7]: > 5000 nM; IC50 [2, 8]: > 5000 nM

Second part, led by results:

IC50 [1, 3] | IC50 [2, 4] | Structure (SMILES) | also measured
1000 to 5000 nM | > 5000 nM | CC[C@]1(c2cccc(S(=O)(=O)CCOC)c2)C2=C(CC(C)(C)CC2=O)Nc2n[nH]cc21 [Compound 943546] | –
1000 to 5000 nM | > 5000 nM | CCC1(c2cccc(S(=O)(=O)C3CCCCC3)c2)C2=C(CC(C)(C)CC2=O)Nc2n[nH]cc21 (centres unmarked) [Compound 943547] | –
≤ 100 nM | 100 to 1000 nM | CC1(C)CC(=O)C2=C(C1)Nc1n[nH]cc1C21CCC(n2cnnc2)CC1 (centres unmarked) [Compound 943894] | –
100 to 1000 nM | 100 to 1000 nM | Cc1noc(C2CCC3(CC2)C2=C(CC(C)(C)CC2=O)Nc2n[nH]cc23)n1 (centres unmarked) [Compound 943895] | –
≤ 100 nM | ≤ 100 nM | CC[C@]1(c2cccc(-c3ccncc3C(F)(F)F)c2)C2=C(CC(C)(C)CC2=O)Nc2n[nH]cc21 [Compound 943913] | IC50 [1, 5]: ≤ 100 nM; IC50 [2, 6]: 100 to 1000 nM

— patent publication US20250313563A1, “GLYCOGEN SYNTHASE KINASE 3 INHIBITORS AND USES THEREOF” (The Broad Institute, Inc., priority 2022, published 2025)
